pIC50: −log10 of the molar value. Counter-ions that a name gives are not always drawn.
What was measured:
[1] = cited from earlier work
breast cancer = details: intramuscular injection, breast cancer patients; cited from earlier work
uterine growth = assay: Uterine wet weight inhibition in immature rats; type: in vivo, female immature rats; details: oral, three consecutive days
Protocol: This study was intended to evaluate the uterine growth inhibition of compounds of the present application in female immature rats aged 18-21 days (provided by Beijing Vital River Laboratory Animal Technology Co., Ltd., with the number of test animals in each experimental group being 5). In this study, 18-day-old female immature rats were given oral doses of 10 mg/kg of the compound of the present application and 0.1 mg/kg of estradiol for three consecutive days, the control group was given oral doses of 0.1 mg/kg of estradiol for three consecutive days, and the blank group was given no drugs except the corresponding vehicle. Three days after the administration, the rats were sacrificed, and the uteruses of the rats were weighed to observe the effect of the test compound on the uterine growth inhibition in rats. Inhibition rate=100*[(VehicleEE−Cpd)/(VehicleEE−Vehicle)], wherein VehicleEE is uterine wet weight in the control group (oral doses of 0.1 mg/kg estradiol); Cpd is the uterine wet weight of the treatment group; Vehicle is the uterine wet weight of rats in the blank group.

[2] = Pharmacokinetics study in rats (cassette); type: in vivo; details: female, SD, plasma, rat cassette PK
From the text: (§1) Experimental objective: To determine the drug concentration in the plasma of the rats at different times after intravenous and oral administration of the test compounds by LC/MS/MS using female SD rats as the test animals. To investigate the pharmacokinetic performance of the test compounds in rats and to evaluate the pharmacokinetic characteristics.
Test animals: 4 healthy female SD rats were divided into 2 groups according to according to the principle of similar weight, 2 in the IV group and 2 in the PO group. Animal used in this study were purchased from Beijing Vital River Laboratory Animal Technology Co., Ltd.
(§2) IV group: Appropriate amounts of compounds were weighed respectively, prepared into 2 mg/mL solutions, then mixed to give a 0.5 mg/mL solution, which was stirred and ultrasonicated until a clear state. The vehicle was 15% HP-b-CD.
(§3) PO group: An appropriate amount of the IV group solution was taken and diluted to 0.4 mg/mL with 15% HP-b-CD.
(§4) Administration: After fasting overnight, the IV group was administered intravenously, and the dose of the test compound was 1 mg/kg; the PO group was administered intragastrically, and the dose of the test compound was 2 mg/kg.
(§5) Procedures: For IV group, 200 μL of blood was collected from the jugular vein of the female SD rats at 0.0833, 0.25, 0.5, 1, 2, 4, 8, and 24 hours post-dose, and placed in a commercial anticoagulant tube with EDTA-K2 added in advance. For PO group, 200 μL of blood was collected from the jugular vein of the female SD rats at 0.25, 0.5, 1, 2, 4, 8, 12 and 24 hours post-dose, and placed in a commercial anticoagulant tube with EDTA-K2 added in advance. The blood samples were centrifuged (3,200 g, 4° C., 10 minutes) to give plasma samples, which was transferred to a pre-cooled centrifuge tube, frozen in dry ice, and stored in an ultra-low temperature freezer at −60° C. or lower until the LC-MS/MS analysis. The animals were given free access to food 4 hours after the administration. LC/MS/MS method was used to determine the content of the test compounds in the plasma of […] after intravenous and oral administration. The linear range of the method is 2.00-2000 nM.

[3] = tested on: MCF-7 breast cancer cell xenograft; assay: In vivo efficacy, MCF-7 breast cancer xenograft; design: species or system BALB/c nude mice; details: for Tumor volume 27 days after grouping: Mean ± SEM; for T/C / TGI: day 27
Protocol: This study was intended to evaluate the anti-tumor efficacy of compounds of the present application in MCF-7 breast cancer cell xenograft BALB/c nude mice (provided by Beijing Vital River Laboratory Animal Technology Co., Ltd., with the number of test animals in each experimental group being 7).
Three days before the xenograft, the mice were inoculated with 0.36 mg of 60-day sustained-release estrogen tablets subcutaneously on the left shoulder. In the logarithmic growth phase, the cells were collected and counted. The cell density was adjusted to 10×10^7 cells/mL, added with an equal volume of Matrigel and mixed for inoculation. Each mouse was xenografted subcutaneously with 0.2 mL of MCF-7 tumor cell suspension (10×10^6) on the right shoulder. On the 14th day after tumor cell xenograft, the mice were grouped and administered the drugs once a day, with an average tumor volume of 200 mm^3 and a body weight of 22.0-23.0 g. Tumor volume and body weight were measured twice a week after grouping. The tumor growth rate (T/C) and tumor growth inhibition rate (TGI) were calculated for the last tumor measurement data on the 27th day after grouping, and the anti-tumor efficacy of the compound was evaluated by TGI (%) or relative tumor proliferation rate T/C (%). TGI (%), reflects the tumor growth inhibition rate. TGI (%)=[(1-(average tumor volume at the end of treatment in a treatment group—average tumor volume at the start of treatment in the treatment group))/(average tumor volume at the end of treatment in the solvent control group—average tumor volume at the start of treatment in the solvent control group)]×100%, relative tumor proliferation rate T/C (%)=TRTV/CRTV×100% (TRTV: average RTV in the treatment group; CRTV: average RTV in the negative control group). Relative tumor volume (RTV) was calculated based on the results of tumor measurement. The formula is RTV=Vt/V0, wherein V0 is the tumor volume measured when grouping and administering (i.e., D0), and Vt is the tumor volume at a certain measurement, the data of TRTV and CRTV should be measured on the same day.

[4] = Pharmacokinetics study in mice (cassette); type: in vivo; details: female, Balb/c, plasma, mouse cassette PK
From the text: as §1, with “Objective:” for “Experimental objective:”, “mice” for “rats”, “Balb/c mice” for “SD rats”
Test animals: 4 healthy female Balb/c mice were divided into 2 groups according to the principle of similar weight, 2 in the IV group and 2 in the PO group. The animals were purchased from Shanghai Lingchang Biotechnology Co., Ltd.
as §2, §3, §4
as §5, with “group, 30” for “group, 200”, “the saphenous” for “the jugular”, “female Balb/c mice” for “female SD rats”

MCF-7 cells = assay: MCF-7 cell proliferation inhibition; type: cell-based; details: 6 days incubation, CellTiter-Glo; read-out: IC50 for MCF-7 cell proliferation inhibition
Protocol: EMEM medium was purchased from Wisent, and fetal bovine serum was purchased from Biosera. Promega CellTiter-Glo reagent. MCF-7 cells were purchased from the Cell Bank of Type Culture Collection Committee of the Chinese Academy of Sciences. Nivo5 multi-marker analyzer (PerkinElmer).
MCF-7 cells were seeded in a white 384-well plate at 600 cells/[…] suspension/well. The plate was incubated in a CO2 incubator overnight.
On the day of treatment, a day 0 plate coated under the same conditions the day before was taken, centrifuged to remove the medium, added with 25 microliters of Promega CellTiter-Glo reagent to each well, and incubated at room temperature for 10 minutes to stabilize the luminescence signal. Measures were read by PerkinElmer Nivo multi-marker analyzer as an initial value for 0% inhibition.
The test compounds were serially 5-fold diluted to the 10th concentration with a multichannel pipette, i.e., from 2 millimoles to […], and the experiments were set up in duplicate. 47.5 microliters of medium was added to the intermediate plate, 2.5 microliters of serially diluted compounds were transferred to corresponding wells of the intermediate plate, and after mixing, 5 microliters of the mixture per well was transferred to the cell plate. The plate was incubated in a CO2 incubator for 6 days.
After 6 days of co-incubation with the compounds, the plate was centrifuged to remove the medium, added with 25 microliters of Promega CellTiter-Glo reagent to each well, and incubated at room temperature for 10 minutes to stabilize the luminescence signal. Measures were read by PerkinElmer Nivo multi-marker analyzer.
The original data was converted into inhibition rate by the formula: % inhibition=((RFUCmpd−AVER(RFUNeg.Ctrl))/((AVER(RFUDay0)−AVER(RFUNeg.Ctrl))×100%. Curve fitting was conducted and IC50 was calculated.

[5] = iv, i.v. 1 mg/kg, read-out: Vdss

Compound: C[C@]12CC[C@@H]3c4ccc(O)cc4C[C@@H](CCCCCCCCC[S+]([O-])CCCC(F)(F)C(F)(F)F)[C@H]3[C@@H]1CC[C@@H]2O (stereo partly drawn) [fulvestrant]
- bioavailability via oral administration [1]: zero
- clinical response rate (breast cancer): about 50%

Compound: C[C@]12CC[C@@H]3c4ccc(O)cc4CC[C@H]3[C@@H]1CC[C@@H]2O [Estradiol, estradiol, reference compound]
- Uterine wet weight (uterine growth; estradiol alone (control group)): 0.1200 g

Compound: CC/C(=C(/c1ccc(OCCNC/C=C/C(=O)N(C)C)nc1)c1[nH]c2ccccc2c1Cl)c1cccc(OC)c1 [Compound 4 monohydrochloride]
- AUC(0-t) ([2]; iv, i.v. 1 mg/kg): 1.9 µM·h
- clearance ([2]; iv, i.v. 1 mg/kg): 15.8 mL/min/kg
- half-life ([2]; iv, i.v. 1 mg/kg): 239 min
- Vd [2, 5]: 4.86 L/kg
- AUC(0-t) ([2]; po, p.o. 2 mg/kg): 1.84 µM·h
- Cmax ([2]; po, p.o. 2 mg/kg): 233 nM
- Tmax ([2]; po, p.o. 2 mg/kg): 2 h
- bioavailability ([2]; po, p.o. 2 mg/kg): 48.4%
- half-life ([2]; po, p.o. 2 mg/kg): 196 min
- Tumor volume 27 days after grouping ([3]; 3 mg/kg once a day): 396 ± 58 mm^3
- T/C ([3]; 3 mg/kg once a day): 28.74%
- TGI ([3]; 3 mg/kg once a day): 83%
- Tumor volume 27 days after grouping ([3]; 10 mg/kg once a day): 124 ± 5 mm^3
- T/C ([3]; 10 mg/kg once a day): 9.32%
- TGI ([3]; 10 mg/kg once a day): 106%
- AUC(0-t) ([4]; iv, i.v. 1 mg/kg): 1.1 µM·h
- clearance ([4]; iv, i.v. 1 mg/kg): 26 mL/min/kg
- half-life ([4]; iv, i.v. 1 mg/kg): 111 min
- Vd [4, 5]: 3.45 L/kg
- AUC(0-t) ([4]; po, p.o. 2 mg/kg): 0.503 µM·h
- Cmax ([4]; po, p.o. 2 mg/kg): 159 nM
- Tmax ([4]; po, p.o. 2 mg/kg): 15 min
- bioavailability ([4]; po, p.o. 2 mg/kg): 22.9%
- half-life ([4]; po, p.o. 2 mg/kg): 195 min

Compound: CC/C(=C(/c1ccc(OCCNC/C=C/C(=O)N(C)C)nc1)c1[nH]c2ccccc2c1Cl)c1ccc(F)cc1Cl [Compound 1]
- pIC50 (MCF-7 cells): 8.85
- Inhibition rate (uterine growth; 10 mg/kg + estradiol 0.1 mg/kg): 75%
- Uterine wet weight (uterine growth; 10 mg/kg + estradiol 0.1 mg/kg): 0.0672 g

Source: US12221432B2, “Estrogen receptor antagonist” (CHIA TAI TIANQING PHARMACEUTICAL GROUP CO., LTD., priority 2018, dated 2025)
